Laboratory results taken from article PMC3160846 (PLoS ONE, 2011).
Values belong to the compound of their own block, whether it stands above or below them.

Columns and labels:
KB cells [1] = assay: Endo-replication (polyploidy), microscopy and flow cytometry, KB; assay type: cell-based, Human; details: 48 h
Method: Cell cycle progression was monitored using flow cytometry. After drug treatment, cells were trypsinized, washed with PBS and fixed in 80% ethanol at −20°C for 1 h. The fixed cells were stained with propidium iodide (containing RNase) at room temperature in the dark for 20 min. The DNA content was determined by a fluorescence-activated cell sorting IV flow cytometer (BD Biosciences, Franklin Lakes, NJ). For each analysis, 10,000 cells were counted and the percentage of cells in each phase was calculated using the ModFit LT software (Verity Software House, Topsham, ME). Experiments were repeated independently at least three times.

KB-VIN10 cells [2] = assay: Western blot of Histone H3 phosphorylation and cyclin B1, KB-VIN10; assay type: cell-based, Human; details: for Histone H3 phosphorylation and cyclin B1 expression: KB-VIN10, 48 h, BPR1K653 12, 24, 36 nM, VX680 170 and 255 nM
Method: (§1) Cells were lysed with ice-cold lysis buffer (10 mM Tris, 1 mM EDTA, 1 mM DTT, 60 mM KCl, 0.5% NP-40 and protease inhibitors). […] The resolved proteins were electrophoretically transferred to PVDF membranes (Amersham Life Science, Amersham, U.K.) for Western blot analysis. The membranes were blocked with 5% non-fat milk at room temperature for two hours, washed twice with TBST (1% Tween) and then incubated with either anti-phosphorylated Aurora-A/-B/-C kinase antibody (#2914S, Cell Signaling Technology, Danvers, MA), anti-Aurora-A and -B kinase antibody (#ab1287 and #ab2254, Abcam, Cambridge, MA), anti-phosphorylated Histone H3 antibody (#9701, Cell Signaling Technology, Danvers, MA), anti-Histone H3 antibody (#9715, Cell Signaling Technology, Danvers, MA), anti-Cyclin B1 antibody or anti-Actin antibody (#sc-245 and #sc-130065, Santa Cruz Biotechnology, Santa Cruz, CA) overnight at 4°C. Membranes were washed twice with TBST then subsequently incubated with a horseradish peroxidase-conjugated secondary antibody (Santa Cruz Biotechnology, Santa Cruz, CA) for 1 hour at room temperature. Immunoreactivity was detected by Enhanced Chemiluminescence (Amersham International, Buckingham, U.K.) and autoradiography. Experiments were repeated independently at least two times.

MV4-11 cells = assay: Clonogenic assay, MV4-11; assay type: cell-based, Human; details: Homo sapiens; MV4-11, leukemia, p53 mutant, MDR1 negative; read-out: IC50, anti-proliferative activity
Method: (§2) Human lung adenocarcinoma A549 cells and NTUB1 bladder cancer cells were maintained in RPMI supplied with 10% fetal bovine serum. […] KB-derived MRP1-expressing cell line, KB-7D, was maintained in growth medium supplemented with 7 µM VP-16.
(§3) Two hundred cells in logarithmic growth phase were seeded in a 6-well plate. The cells were exposed to various concentrations of the test drugs for a three-generation period. At the end of the incubation period, cells were fixed and stained with 50% ethanol containing 0.5% methylene blue for 30 min. The plates were washed five times with water and allowed to air-dry. Colonies were countered manually. […] Each value represents the average of at least three independent experiments run in triplicates.

NTU0.017 cells = assay: Clonogenic assay, NTU0.017; assay type: cell-based, Human; details: for IC50: Homo sapiens, NTU0.017, paclitaxol resistant, MDR1 ↑, read-out: IC50, anti-proliferative activity
Method: as §2, §3

HT29 cells = assay: Clonogenic assay, HT29; assay type: cell-based, Human; details: Homo sapiens, HT-29; HT29, colon, p53 mutant, MDR1 negative; read-out: IC50, anti-proliferative activity
Method: as §2, §3

[3] = system: human cervical carcinoma KB xenografts; assay: KB xenograft in nude mice; assay type: in vivo; details: for decrease in tumor volume: day 30, BPR1K653 15 mg/kg or VX680 30 mg/kg i.p.
Method: Under in vivo conditions, tumors were dissected from the euthanized mice and instantly stored under −80°C. Tumor tissue sections were prepared from the use of cryostats (Leica Microsystems, Buffalo Grove, IL), and subsequently fixed with ice-cold methanol. Tissue sections were stained by the TUNEL reagent using Fluorescent (green) In-Situ Apoptosis Detection Kit (catalog number #11684795910, Roche Diagnostic, Mannheim, Germany). Cells were counterstained with DAPI to detect nucleus, and examined by fluorescence microscopy. Amount of green fluorescence labeled (DNA fragmented) cells were counted and percentage of apoptotic cells were calculated as follows: Amount of green fluorescence labeled cells ÷ Total cells available×100. Experiments were repeated independently at least two times.
(§4) Male nude mice (5–6-weeks-old) were purchased from the National Laboratory Animal Centre (Taiwan R.O.C.). The animals were s.c. implanted with 5×10^5 KB cells or 1×10^6 KB-VIN10 cells mixed with equal volume of Matrigel (Becton Dickinson) in 0.1 mL at one flank per mouse via a 22-gauge needle. Tumor growth was examined twice a week after implantation, and the volume of tumor mass was measured with an electronic caliper and calculated as 1/2×length×width^2 in mm^3.
(§5) BPR1K653 was dissolved completely in a vehicle mixture of DMSO/cremophor/saline (1∶2∶7). Selected dose of BPR1K653 was decided base on the following conditions: 1/2 of the dosage that caused noticeable body weight loss (>10%) in the treated mice during toxicity study. […] The control group (5 mice) was treated with vehicle mixture only. Tumor size and animal body weight were measured every three days after drug treatment. Toxicity was evaluated based on the body weight reduction. At the end of the experiments (tumor size of the control >2000 mm^3), animals were euthanized with carbon dioxide.
Tumors were harvested and instantly stored at −80°C. Frozen cryostat sections were fixed with ice-cold methanol for 10 min. After washing with PBS, endogenous peroxidase was blocked using 3% hydrogen peroxide in TBS for 5 min. Immunostaining process was carried out according to the user's manual of the ABC Peroxidase Staining Kit (Pierce Biotechnology, Rockford, IL). Briefly, the tissues were incubated with a protein-blocking solution for 20 min, and subsequently stained with an anti-phosphorylated Histone H3 (Ser10) polyclonal antibody for 1 hour at room temperature. Then, the samples were incubated with the ABC reagent for 30 min, and subsequently incubated with the metal enhanced DAB substrate. The sections were counterstained with hematoxylin.

HONE-1 cells = assay: Clonogenic assay, HONE-1; assay type: cell-based, Human; details: Homo sapiens, HONE1; HONE-1, oral, p53 mutant, MDR1 negative; read-out: IC50, anti-proliferative activity
Method: as §2, §3

[4] = system: MDR1-expressing KB-VIN10 xenograft; assay: KB-VIN10 xenograft in nude mice; assay type: in vivo; details: 5 days/week for 3 weeks; for decrease in tumor volume: Day 42, BPR1K653 15 mg/kg or VX680 30 mg/kg i.p.
Method: as §4, §5

KB cells [5] = assay: Western blot of Histone H3 phosphorylation and cyclin B1, KB; assay type: cell-based, Human; details: 48 h, BPR1K653 12, 24, 36 nM, VX680 170 and 255 nM
Method: as §1

KB-VIN10 cells [6] = assay: Clonogenic assay, KB-VIN10; assay type: cell-based, Human; details: for IC50: Homo sapiens, KB-VIN10, vincristine resistant, MDR1 ↑, read-out: IC50, anti-proliferative activity
Method: as §2, §3

IC50 (MV4-11 cells): 5 nM
IC50 (HT29 cells): 12 ± 2 nM
loss of body weight after treatment ([3]; 15 mg/kg i.p., 5 days/week for 2 weeks, vs control group): less than 10%
loss of body weight after treatment ([4]; 15 mg/kg i.p., vs control group): less than 10%
IC50 (KB-VIN10 cells [6]): 14 ± 4 nM
SMILES: CN(C)Cc1ccccc1NC(=O)Nc1ccc(CCNc2ncnc3oc(-c4ccccc4)c(Cl)c23)cc1 [BPR1K653]
formation of polyploidy (populations >4N) (KB cells [1]): induced the formation of polyploidy
Histone H3 phosphorylation and cyclin B1 expression (KB-VIN10 cells [2]): inhibition of Histone H3 phosphorylation and down-regulation of cyclin B1 expression
IC50 (NTU0.017 cells): 10 ± 4 nM
Fold difference as compare to the IC50 in the respective parental cells (NTU0.017 cells; NTU0.017 vs NTUB1): 1 fold
phosphor-Histone H3 positive cells present in tumor tissues ([3]; 15 mg/kg i.p., 24 h after second administration, control 60%): 10%
apoptotic cells present in the tumor tissue (TUNEL) ([3]; 15 mg/kg i.p., 12 days post-treatment, control 7%): 55%
decrease in tumor volume ([3]; 5 days/week for 2 weeks): ~73%
IC50 (HONE-1 cells): 11 nM
decrease in tumor volume [4]: ~50%
Histone H3 phosphorylation and cyclin B1 expression (KB cells [5]): inhibition of Histone H3 phosphorylation and down-regulation of cyclin B1 expression
Fold difference as compare to the IC50 in the respective parental cells (KB-VIN10 cells [6]; KB-VIN10 vs KB): 1 fold

SMILES: Cc1cc(Nc2cc(N3CCN(C)CC3)nc(Sc3ccc(NC(=O)C4CC4)cc3)n2)[nH]n1 [VX680]
formation of polyploidy (populations >4N) (KB cells [1]): induced the formation of polyploidy in KB cells
Histone H3 phosphorylation and cyclin B1 expression (KB-VIN10 cells [2]): could not induce the above molecular changes
Histone H3 phosphorylation and cyclin B1 expression, with verapamil (KB-VIN10 cells [2]; KB-VIN10, + verapamil 10 µM): restore the sensitivity to VX680
IC50 (MV4-11 cells): 15 ± 4 nM
IC50 (NTU0.017 cells): 6770 ± 1080 nM
IC50 (HT29 cells): 160 ± 33 nM
decrease in tumor volume ([3]; 5 days/week for 2 weeks): ~68%
IC50 (HONE-1 cells): 20 ± 2 nM
decrease in tumor volume [4]: did not exhibit significant tumor growth inhibitory effect
Histone H3 phosphorylation and cyclin B1 expression (KB cells [5]): inhibited the phosphorylation of Histone H3 and the expression of cyclin B1
IC50 (KB-VIN10 cells [6]): 1400 ± 140 nM
